Data as given in article PMC5583658, “6,7-dimethoxy-1,2,3,4-tetrahydro-isoquinoline-3-carboxylic acid attenuates heptatocellular carcinoma in rats with NMR-based metabolic perturbations” (Future Science OA, 2017).
Entries after “also recorded” stand apart in the source; their conditions may differ.

Legend:
[1] = test system: diethylnitrosamine-induced hepatocarcinogenic rats; test: ALT and AST in plasma of DEN-induced HCC rats; type: in vivo, albino Wistar rats; settings: 15 days, mean ± SD, n = 6
Procedure: (§1) All animals were randomly divided into five groups of six animals each. Drugs were suspended in 0.25% CMC, subjected to 28 days’ treatment orally and divided as follows: Group I: 0.25% CMC (2 ml/kg), Group II: DEN (8 mg/kg, intraperitoneally), Group III: DEN+5-fluorouracil (5-FU, 10 mg/kg, intraperitoneally), Group IV: DEN+M1 (50 mg/kg, orally) and Group V: DEN+M1 (100 mg/kg, orally). The procedure to induce HCC was adopted from a paper by Song et al. where it is shown that DEN produces HCC at 8 mg/kg intraperitoneal injection for 28 days to albino Wistar rats. After initial 1 week of adaptive inhabitation, all rats of group II–V were administered with DEN (8 mg/kg, intraperitoneally) for 28 days. After 28 days, 5-FU and M1 were given for 15 days as mentioned above for group III–V. At the end of the experimental period, animals were sacrificed by cervical decapitation and livers were dissected out immediately, rinsed in ice cold saline and stored at -20°C for further studies. The serum was collected, processed and stored for further analysis.
(§2) Liver function biomarkers like aspartate aminotransferase (AST), alanine aminotransferase (ALT) were also measured in serum using commercially available kit from Ebra Diagonesis Pvt Ltd, Germany. The oxidative parameters like superoxide dismutase (SOD), thiobarbituric acid reactive substances (TBARS), protein carbonyl (PC), SOD [14], tissue catalase (CAT) and glutathione (GSH) levels were estimated in liver tissue in the similar experiment. The total protein content of each sample was measured using the Bradford reagent and bovine serum albumin was used as a standard. Conjugated bilirubin and biliverdin in liver were measured as per the following procedure stated earlier in the literature with slight modifications.

[2] = test system: diethylnitrosamine-induced hepatocarcinogenic rats; test: Oxidative stress parameters (SOD, CAT, GSH, PC, MDA) in liver of DEN-induced HCC rats; type: in vivo, albino Wistar rats; settings: for CAT / MDA / PC / Reduced GSH / SOD: 15 days, mean ± SD, n = 6
Procedure: as §1, §2

[3] = test system: diethylnitrosamine-induced hepatocarcinogenic rats; test: Bilirubin and biliverdin in liver of DEN-induced HCC rats; type: in vivo, albino Wistar rats; settings: for Bilirubin / Biliverdin: 15 days, mean ± SD, n = 6
Procedure: as §1, §2

[4] = test system: diethylnitrosamine-induced hepatocarcinogenic rats; test: Histopathological studies of liver (hematoxylin and eosin); type: in vivo, albino Wistar rats; settings: DEN+M1 50 and 100 mg/kg orally; 40X
Procedure: as §1
Histopathological studies were also performed to find out the morphological changes of liver cells after M1 administration. Liver tissues from each group were assessed for their morphological changes using hematoxylin and eosin staining. The tissues were preserved in 10% formalin overnight. […]

Huh-7 cells = settings: in vitro, MTT assay; M1 isolated from MP seeds; cited from earlier work

## COc1cc2c(cc1OC)CC(C(=O)O)NC2 (centres unmarked) [M1, 6,7-dimethoxy-1,2,3,4-tetrahydro-isoquinoline-3-carboxylic acid]
[1]; DEN+M1 50 mg/kg orally
  ALT: 88.4 ± 3.18 U/L
  AST: 47.73 ± 1.76 U/L
[1]; DEN+M1 100 mg/kg orally
  ALT: 58.04 ± 2.84 U/L
  AST: 40.95 ± 1.35 U/L
[2]; DEN+M1 50 mg/kg orally
  CAT: 6.51 ± 0.29 nM of H2O2/min/μg of protein
  MDA: 51.60 ± 1.009 nM/μg of protein
  PC: 0.46 ± 0.08 μM/μg of protein
  Reduced GSH: 5.40 ± 0.42 μM/μg of protein
  SOD: 5.92 ± 0.72 U/μg of protein
[2]; DEN+M1 100 mg/kg orally
  CAT: 7.52 ± 0.7 nM of H2O2/min/μg of protein
  MDA: 45.20 ± 1.05 nM/μg of protein
  PC: 0.40 ± 0.02 μM/μg of protein
  Reduced GSH: 6.69 ± 0.30 μM/μg of protein
  SOD: 6.14 ± 0.17 U/μg of protein
[2]; M1 50 mg/kg
  GSH level: ~5.40 µM
[2]; M1 100 mg/kg
  GSH level: ~6.69 µM
[2]; M1-treated groups (toxic control 20–30%)
  SOD level as compared with normal group: 70–80%
[2]; M1-treated rats, text value (toxic control ∼0.96 μM)
  PC formation: ~0.40 µM
[2]; after M1 therapy, text value (toxic control approximately 98 nM)
  MDA formation: ~50 nM
[3]; DEN+M1 50 mg/kg orally
  Bilirubin: 50.59 ± 1.39 ng/μg of protein
  Biliverdin: 21.19 ± 2.42 ng/μg of protein
[3]; DEN+M1 100 mg/kg orally
  Bilirubin: 40.64 ± 3.47 ng/μg of protein
  Biliverdin: 16.95 ± 1.96 ng/μg of protein
[3]; M1-treated rats, text value (toxic control ∼28 ng)
  biliverdin concentration: ~16 ng
[4]
  liver histopathology: normal tissue architecture was seen; also recorded: less ruptured and denatured cells (RC and DC) than toxic control
Huh-7 cells
  antiproliferative action on Huh-7 cells: good antiproliferative action
